For test [1], the target named is T1, guinea pig tissue transglutaminase (Cavia cutleri, UniProt P08587).
T1 sequence (P08587 1-690): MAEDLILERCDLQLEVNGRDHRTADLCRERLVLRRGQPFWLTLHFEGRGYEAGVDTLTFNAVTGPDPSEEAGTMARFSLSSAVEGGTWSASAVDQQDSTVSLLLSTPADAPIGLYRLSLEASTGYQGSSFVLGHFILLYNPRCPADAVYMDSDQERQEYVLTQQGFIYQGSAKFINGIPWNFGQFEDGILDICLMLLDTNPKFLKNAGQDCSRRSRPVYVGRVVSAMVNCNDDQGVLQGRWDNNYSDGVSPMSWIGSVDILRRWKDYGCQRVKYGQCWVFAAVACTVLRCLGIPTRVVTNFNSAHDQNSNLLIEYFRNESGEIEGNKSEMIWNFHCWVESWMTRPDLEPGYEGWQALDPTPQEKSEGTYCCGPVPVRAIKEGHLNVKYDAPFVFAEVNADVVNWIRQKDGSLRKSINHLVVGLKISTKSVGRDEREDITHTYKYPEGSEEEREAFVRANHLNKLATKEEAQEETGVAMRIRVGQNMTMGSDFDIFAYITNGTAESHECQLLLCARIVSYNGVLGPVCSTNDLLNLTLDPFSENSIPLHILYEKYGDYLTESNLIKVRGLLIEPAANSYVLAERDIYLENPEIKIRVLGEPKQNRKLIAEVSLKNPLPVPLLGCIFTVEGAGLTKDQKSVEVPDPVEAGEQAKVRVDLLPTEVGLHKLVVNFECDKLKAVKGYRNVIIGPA
The test is described as follows: Crosslinking of α2AP13-24 into fibrin by tissue transglutaminase. The class given is biochemical. The note with it: purified tissue transglutaminase (100 nM) added to FXIIIa-deficient fibrinogen. As for the experimental part: Fibrin clots (50 μl) were prepared in duplicate by mixing FXIII-free fibrinogen (2 mg/ml final), α2AP13-24 (SEQ ID NO:2; 0.5 mM final), CaCl2 (2 mM final), human plasma FXIII (100 nM/L final) and guinea pig tissue transglutaminase (100 nM/L final) and thrombin (1 U/ml final) and incubating at 37° C. for 2 hours. The crosslinking of α2AP13-24 was detected as described above.

The subject of a further test is pulmonary emboli. As to the kind of experiment: Crosslinking of α2AP13-24 into pulmonary emboli in vivo. On the set-up: species or system ferret. Particulars: 0.5 mM dose of biotinylated peptide after embolization, 4 hours. The protocol: To examine whether FXIIIa which formed thrombi in vivo retained the ability to crosslink substrates, the ferret pulmonary embolism model was used. Clots were formed by combining 45 μl of pooled human fresh frozen plasma with ^125I-labeled fibrinogen (˜100,000 cpm/clot), 2.5 μl of 0.4 M CaCl2, and 2.5 μl thrombin (1000 U/ml). The clots were incubated at 37° C. for 20 minutes, washed three times in saline, and 6 were embolized into the lungs of each animal. Three experimental groups were examined with 2 animals in each group. One group received normal clots and a solution of α2AP13-24 (SEQ ID NO:2) calculated to produce a final peptide concentration of 0.5 mM. Another group also received the same peptide concentration; prior to embolization, the clots in this group were washed in iodoacetamide (10 mg/ml) and EDTA (10 mM final) to inhibit clot associated FXIIIa. The third group received the blood clots but no peptide infusion afterward. Four hours after embolization, the ferrets were sacrificed by CO2 inhalation. The heart, lungs, and great vessels were removed and gamma-counted to locate the pulmonary emboli.
Lung tissue containing pulmonary emboli was localized with a Geiger counter, excised and weighed. […]

Here are results for 1 molecule from US6534035B1, “Methods of inhibiting clot formation” (President and Fellows of Harvard College, priority 1998, dated 2003).

Entries after “also recorded” stand apart in the source; their conditions may differ. Peptide text beside a SMILES is read from it. * marks the point of attachment. Biotin = O=C1N[C@H]2[C@H](CS[C@H]2CCCCC(=O)*)N1

Take `CC(C)C[C@H](NC(=O)[C@H](CC(C)C)NC(=O)[C@@H](NC(=O)[C@H](CC(C)C)NC(=O)[C@@H]1CCCN1C(=O)[C@H](CO)NC(=O)[C@@H](NC(=O)[C@H](CCC(N)=O)NC(=O)[C@H](CCC(=O)O)NC(=O)[C@H](CCC(N)=O)NC(=O)[C@@H](N)CC(N)=O)C(C)C)[C@@H](C)O)C(=O)N[C@@H](CCCCNC(=O)CCCC[C@@H]1SC[C@@H]2NC(=O)N[C@@H]21)C(=O)O` [α2AP13-24, NQEQVSPLTLLK] (H-NQEQVSPLTLLK(Biotin)-OH): the “crosslinking of peptide to fibrin” value in test [1] is “slight increase in crosslinking”. Also, the “incorporation of peptide into existing pulmonary emboli” value in the test with pulmonary emboli is given as “specific staining was detected in the thrombus; also recorded: covalently incorporated”.
